The record followed here is patent US12486495B2, “Cardiac organoid, manufacturing method therefor, and method for evaluating drug toxicity by using same” (priority 2020, dated 2025).

Structures are written as SMILES.

This data set relates to cardiac organoid.

As for `COc1ccc(CCN(C)CCCC(C#N)(c2ccc(OC)c(OC)c2)C(C)C)cc1OC` (stereo not shown) [verapamil], the “beating velocity after treatment with calcium antagonist” value (FIG. 13A, heat maps for beating velocity, after drug treatment) is on record as “reduced”. In addition, the “beating velocity after washing” value (FIG. 13A, after washing and culturing for 1 hour) is on record as “again increased”. The “conduction displacement after treatment” value (comparison of three treatment amount groups (100 nM, 1 μM, 10 μM), FIG. 13B/13C) is “highest in a 1 μM group”. In addition, the “conduction displacement after washing” value (comparison of three treatment amount groups, FIG. 13B/13C) was “highest in the 1 μM group”. For the same molecule, the “beat rate variation after washing” value (comparison of three treatment amount groups, FIG. 13C) is listed as “highest in the 10 μM group”. Besides, where the note is “inferred from beat rate variation at low treatment amount”, the “drug toxicity of the heart, comparison” value is recorded as “higher than that of nifedipine”. For the same molecule, for the setting “inferred from beat rate variation of the cardiac organoid”, the “treatment amount at which side effects in the heart in vivo may be caused” value is on record as at least 100 nM.
